Measured values: patent US10553890B2, “Aqueous redox flow batteries” (UCHICAGO ARGONNE, LLC, priority 2017, dated 2020)
“Also recorded” adds a separate entry of the source.

Experiments:
Format in all cases: physicochemical
[1] = Cyclic voltammetry (three-electrode cell, glassy carbon working electrode, Ag/AgCl reference); conditions: for redox stability (irreversible side reactions): 5 mV/s, cycling 0 V up to about 1.2 V; for oxidation potential: glassy carbon; for observed oxidation potential: 1 mM in 0.5 M sulfuric acid, scan rate 20 mV/s, 0 V to 1 V
Experimental: Cyclic voltammetry (CV) measurements: CV experiments were performed in custom-made three-electrode electrochemical cells with 3 mm diameter glassy carbon working electrode, a Ag/AgCl reference electrode and a platinum wire counter electrode using 1470E SOLARTRON ANALYTICAL INSTRUMENT.

[2] = Solubility in aqueous acid; conditions: aqueous acid / acidic conditions
[3] = Galvanostatic bulk electrolysis cycling; conditions: 1 mM in 3.0 M sulfuric acid, constant current 2.68 mA, cut-off 0.25 V to 0.85 V
Experimental: Galvanostatic bulk electrolysis: Galvanostatic cycling test was performed with a three-electrode bulk electrolysis electrochemical cell using 1470E SOLARTRON ANALYTICAL INSTRUMENT. Reticulated vitreous carbon was used as the working electrode, Ag/AgCl electrode was used as the reference electrode and coiled platinum enclosed in glass tubes with porous ceramic frit was used as the counter electrode.

[4] = Diffusion coefficient measurement using Randle-Sevcik equation; conditions: scan rates 10-100 mV/s
Experimental: Diffusion coefficient measurement: Diffusion coefficients were measured using Randle-Sevcik equation as shown below. In this equation, ip is the peak current, n represents the number of electrons transferred in the redox reaction, F is the Faraday's constant, A is the electrode area, c represents the concentration, v is the scan rate, D is the diffusion coefficient, R is the gas constant and T is the absolute temperature.

[5] = 5 mM in 1.0 M sulfuric acid, scan rate 5 mV/s

SMILES | observed oxidation potential [1] | capacity and capacity retention [3] | redox stability (irreversible side reactions) ([1]; 5 mM in 1.0 M sulfuric acid) | oxidation potential [1, 5] | other results
CC1(C)CC(N)CC(C)(C)N1[O] [4-NH2-TEMPO, 4-amino-2,2,6,6-tetramethylpiperidyl-1-oxyl] |  |  | irreversible reduction; also recorded: greater redox stability (i.e., less severe irreversible side reactions) than 4-OH-TEMPO | 0.92 V (vs. AG/AgCl) | oxidation potential higher than 4-OH-TEMPO [1, 5]: 0.09 V; solubility [2]: higher solubility than 4-OH-TEMPO
CC1(C)CC(O)CC(C)(C)N1[O] [4-OH-TEMPO, reference compound] |  |  | irreversible reduction | 0.83 V (vs. AG/AgCl) | 
NCCc1ccc(O)c(O)c1 [dopamine, 3,4-dihydroxyphenethylamine, reference compound] |  |  |  |  | diffusion coefficient ([4]; 50 mM in 0.5 M sulfuric acid): 2.43×10^−6 cm^2/s

Further lines, with some results ahead:

observed oxidation potential [1] | capacity and capacity retention [3] | SMILES | redox stability (irreversible side reactions) ([1]; 5 mM in 1.0 M sulfuric acid) | oxidation potential [1, 5] | other results
0.66 V (vs. AG/AgCl) | very similar | CN(C)c1cc(S(=O)(=O)O)c(O)c(S(=O)(=O)O)c1 [DADPS, 5-(dimethylamino)-2-hydroxybenzene-1,3-disulfonic acid] |  |  | potential in bulk electrolysis relative to unsubstituted aminophenol (DMAP) [3]: increased potential
0.56 V (vs. AG/AgCl) | very similar | CN(C)c1ccc(O)cc1 [DMAP, 4-dimethylaminophenol] |  |  | diffusion coefficient ([4]; 1 mM in 0.5 M sulfuric acid): 3.9×10^−6 cm^2/s
